Experiments:
Type in all cases: biochemical
CytAPX1 from G. max (Gm) = target: T1, CytAPX1 from G. max (Gm) (Glycine max, UniProt Q43758); assay: APX activity assay, in-gel and in solution; settings: H2O2 co-substrate
T1 construct: gene apx1; recombinant from E. coli, purified
T1 sequence (Q43758 1-250): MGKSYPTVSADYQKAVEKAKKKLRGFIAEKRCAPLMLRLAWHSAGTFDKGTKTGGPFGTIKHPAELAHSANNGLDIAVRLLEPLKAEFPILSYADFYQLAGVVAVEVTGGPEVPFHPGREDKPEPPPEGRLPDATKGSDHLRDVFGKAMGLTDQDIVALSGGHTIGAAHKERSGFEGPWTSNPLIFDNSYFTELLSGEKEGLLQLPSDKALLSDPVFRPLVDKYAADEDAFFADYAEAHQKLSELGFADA

[1] = target: T2, OgCytAPX1 (Oncidium cytosolic ascorbate peroxidase 1) (Oncidium hybrid cultivar, UniProt B8XF08); assay: enzyme kinetics, Lineweaver-Burk; settings: H2O2 co-substrate; APX activity
T2 construct: full length, 250 residues, ~27 kDa; cloned from pseudobulb mRNA; MBP fusion (pMAL-c5x) from E. coli BL21, MBP removed by factor Xa

AtCytAPX1 = target: T3, AtCytAPX1 (Arabidopsis thaliana, UniProt Q05431); assay: APX activity assay, in-gel and in solution; settings: H2O2 co-substrate
T3 construct: gene APX1; ~27 kDa; MBP fusion from E. coli, MBP removed by factor Xa
T3 sequence (Q05431 1-250): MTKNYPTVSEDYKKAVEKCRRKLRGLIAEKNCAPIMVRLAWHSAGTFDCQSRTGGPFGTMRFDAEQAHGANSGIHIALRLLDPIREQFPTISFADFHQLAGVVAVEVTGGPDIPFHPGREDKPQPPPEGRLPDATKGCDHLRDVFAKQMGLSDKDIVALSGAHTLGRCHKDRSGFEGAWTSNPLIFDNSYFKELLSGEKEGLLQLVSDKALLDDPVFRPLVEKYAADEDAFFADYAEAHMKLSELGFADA

[2] = target: T4, CytAPX1 from O. sativa (Os) (Oryza sativa, UniProt Q10N21); assay: APX activity assay, in-gel and in solution; settings: H2O2 co-substrate
T4 construct: gene APX1; recombinant from E. coli, purified
T4 sequence (Q10N21 2-250): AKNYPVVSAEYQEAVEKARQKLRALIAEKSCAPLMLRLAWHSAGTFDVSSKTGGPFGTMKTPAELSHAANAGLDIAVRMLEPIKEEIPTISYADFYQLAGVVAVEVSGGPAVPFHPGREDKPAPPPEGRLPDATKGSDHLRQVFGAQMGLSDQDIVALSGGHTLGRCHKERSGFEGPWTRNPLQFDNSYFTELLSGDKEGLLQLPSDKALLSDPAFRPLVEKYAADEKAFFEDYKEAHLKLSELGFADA

T2 sequence (B8XF08 entry or part of it): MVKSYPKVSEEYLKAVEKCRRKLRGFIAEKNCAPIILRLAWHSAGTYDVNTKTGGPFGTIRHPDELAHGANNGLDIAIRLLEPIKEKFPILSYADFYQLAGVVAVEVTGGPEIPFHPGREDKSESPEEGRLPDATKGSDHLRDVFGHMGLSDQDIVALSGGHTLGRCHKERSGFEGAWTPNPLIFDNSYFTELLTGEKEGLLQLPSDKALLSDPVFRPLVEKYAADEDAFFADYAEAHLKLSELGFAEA

O=C1O[C@H]([C@@H](O)CO)C(O)=C1O [AsA]
APX activity assay, in-gel and in solution (CytAPX1 from G. max (Gm)): Recombinant proteins from G. max, O. sativa, and Z. mays displayed both AsA and GSH
Km [1]: 616 µM
APX activity assay, in-gel and in solution (AtCytAPX1): AtCytAPX1 displayed only APX activity
APX activity assay, in-gel and in solution [2]: Recombinant proteins from G. max, O. sativa, and Z. mays displayed both AsA and GSH

Reference: article PMC6542772, “Plant Cytosolic Ascorbate Peroxidase with Dual Catalytic Activity Modulates Abiotic Stress Tolerances” (iScience, 2019)
